Results published in patent publication US6852673B2, “Herbicidal pyridine compounds” (BASF Aktiengesellschaft, priority 1998, dated 2005).

What was measured:
Format in all cases: in vivo
Glycine max (GLXMA) = experiment: Pre-emergence herbicidal evaluation, soyabeans
Source text: (§1) The pre-emergence herbicidal activity of the compounds of the present invention is exemplified by the following test in which the seeds of a variety of monocotyledonous and dicotyledonous plants are seperately mixed with potting soil and planted on top of approximately one inch of soil in separate pots. After planting, the pots are sprayed with the selected aqueous acetone solution containing test compound in sufficient quantity to provide the equivalent of about 0.0125 to 0.4 kg per hectare of test compound per pot. The treated pots are then placed on greenhouse benches, watered and cared for in accordance with conventional greenhouse procedures. From 2 to 4 weeks after treatment, the tests are terminated and each pot is examined and rated according to the rating system set forth below.

Oryza sativum (ORYSA) = experiment: Pre-emergence herbicidal evaluation, rice
Source text: as §1

[1] = tested on: Triticum aestivum (TRZAW); experiment: Pre-emergence herbicidal evaluation, winter wheat
Source text: as §1

Zea mays (ZEAMX) [2] = experiment: Pre-emergence herbicidal evaluation, maize
Source text: as §1

[3] = tested on: Abutilon theophrasti (ABUTH); experiment: Pre-emergence herbicidal evaluation, velvetleaf
Source text: as §1

[4] = tested on: Ambrosia artemiisifolia (AMBEL); experiment: Pre-emergence herbicidal evaluation, ragweed
Source text: as §1

Galium aparine (GALAP) = experiment: Pre-emergence herbicidal evaluation, cleaver
Source text: as §1

Lamium purpureum (LAMPU) [5] = experiment: Pre-emergence herbicidal evaluation, purple deadnettle
Source text: as §1

Stellaria media (STEME) [6] = experiment: Pre-emergence herbicidal evaluation, chickweed
Source text: as §1

[7] = tested on: Alopecurus myosuroides (ALOMY); experiment: Pre-emergence herbicidal evaluation, black grass
Source text: as §1

[8] = tested on: Echinochloa grus galli (ECHCG); experiment: Pre-emergence herbicidal evaluation, barnyard grass
Source text: as §1

Setaria viridis (SETVI) [9] = experiment: Pre-emergence herbicidal evaluation, green foxtail
Source text: as §1

Hordeum vulgare (HORVW) = experiment: Post-emergence herbicidal evaluation, winter barley; conditions: rated 2 to 4 weeks after treatment
Description: (§2) [table] [table] […] These acetone solutions are diluted with water and the resulting formulations applied at dosage levels equivalent of about 0.03 to 0.4 kg per hectare of test compound per pot. After spraying the plants are placed on greenhouse benches and are cared for in the usual manner, commensurate with conventional greenhouse practices. From 2 to 4 weeks after treatment, the seedling plants are examined and rated according to the rating system provided above. A rating 0 indicates growth as untreated control, a rating 9 indicates death.

[10] = tested on: Triticum aestivum (TRZAW); experiment: Post-emergence herbicidal evaluation, winter wheat; conditions: rated 2 to 4 weeks after treatment
Description: as §2

Zea mays (ZEAMX) [11] = experiment: Post-emergence herbicidal evaluation, maize; conditions: rated 2 to 4 weeks after treatment
Description: as §2

[12] = tested on: Ambrosia artemiisifolia (AMBEL); experiment: Post-emergence herbicidal evaluation, ragweed; conditions: rated 2 to 4 weeks after treatment
Description: as §2

[13] = tested on: Ipomoea hederacea (IPOHE); experiment: Post-emergence herbicidal evaluation, morning glory; conditions: rated 2 to 4 weeks after treatment
Description: as §2

Lamium purpureum (LAMPU) [14] = experiment: Post-emergence herbicidal evaluation, purple deadnettle; conditions: rated 2 to 4 weeks after treatment
Description: as §2

[15] = tested on: Matricaria inodora (MATIN); experiment: Post-emergence herbicidal evaluation, mayweed; conditions: rated 2 to 4 weeks after treatment
Description: as §2

Solanum nigrum (SOLNI) = experiment: Post-emergence herbicidal evaluation, black nightshade; conditions: rated 2 to 4 weeks after treatment
Description: as §2

Stellaria media (STEME) [16] = experiment: Post-emergence herbicidal evaluation, chickweed; conditions: rated 2 to 4 weeks after treatment
Description: as §2

[17] = tested on: Alopecurus myosuroides (ALOMY); experiment: Post-emergence herbicidal evaluation, black grass; conditions: rated 2 to 4 weeks after treatment
Description: as §2

[18] = tested on: Digitaria sanguinalis (DIGSA); experiment: Post-emergence herbicidal evaluation, large crabgrass; conditions: rated 2 to 4 weeks after treatment
Description: as §2

[19] = tested on: Echinochloa grus galli (ECHCG); experiment: Post-emergence herbicidal evaluation, barnyard grass; conditions: rated 2 to 4 weeks after treatment
Description: as §2

Setaria viridis (SETVI) [20] = experiment: Post-emergence herbicidal evaluation, green foxtail; conditions: rated 2 to 4 weeks after treatment
Description: as §2

CC(Cl)=CCOc1cc(C)cc(Oc2cc(C(F)(F)F)nn2C)n1 [Example 11]
selectivity in soybeans (Glycine max (GLXMA)): quite selective | GLXMA rating (Glycine max (GLXMA); dose 0.013 kg/ha): 0 (0 - No effect) | GLXMA rating (Glycine max (GLXMA); dose 0.025 kg/ha): 1 (1 - Trace effect) | GLXMA rating (Glycine max (GLXMA); dose 0.1 kg/ha): 2 (2 - Slight effect) | GLXMA rating (Glycine max (GLXMA); dose 0.4 kg/ha): 4 (4 - Injury) | ORYSA rating (Oryza sativum (ORYSA); dose 0.013 kg/ha): 1 (1 - Trace effect) | ORYSA rating (Oryza sativum (ORYSA); dose 0.025 kg/ha): 1 (1 - Trace effect) | ORYSA rating (Oryza sativum (ORYSA); dose 0.1 kg/ha): 2 (2 - Slight effect) | ORYSA rating (Oryza sativum (ORYSA); dose 0.4 kg/ha): 3 (3 - Moderate effect) | TRZAW rating ([1]; dose 0.013 kg/ha): 0 (0 - No effect) | TRZAW rating ([1]; dose 0.025 kg/ha): 2 (2 - Slight effect) | TRZAW rating ([1]; dose 0.1 kg/ha): 2 (2 - Slight effect) | TRZAW rating ([1]; dose 0.4 kg/ha): 4 (4 - Injury) | ZEAMX rating (Zea mays (ZEAMX) [2]; dose 0.013 kg/ha): 1 (1 - Trace effect) | ZEAMX rating (Zea mays (ZEAMX) [2]; dose 0.025 kg/ha): 2 (2 - Slight effect) | ZEAMX rating (Zea mays (ZEAMX) [2]; dose 0.1 kg/ha): 3 (3 - Moderate effect) | ZEAMX rating (Zea mays (ZEAMX) [2]; dose 0.4 kg/ha): 5 (5 - Definite injury) | activity against Abutilon [3]: superior activity | ABUTH rating ([3]; dose 0.013 kg/ha): 3 (3 - Moderate effect) | ABUTH rating ([3]; dose 0.025 kg/ha): 7 (7 - Good herbicidal effect) | ABUTH rating ([3]; dose 0.1 kg/ha): 9 (9 - Complete kill) | ABUTH rating ([3]; dose 0.4 kg/ha): 9 (9 - Complete kill) | AMBEL rating ([4]; dose 0.013 kg/ha): 7 (7 - Good herbicidal effect) | AMBEL rating ([4]; dose 0.025 kg/ha): 9 (9 - Complete kill) | AMBEL rating ([4]; dose 0.1 kg/ha): 9 (9 - Complete kill) | AMBEL rating ([4]; dose 0.4 kg/ha): 9 (9 - Complete kill) | GALAP rating (Galium aparine (GALAP); dose 0.013 kg/ha): 1 (1 - Trace effect) | GALAP rating (Galium aparine (GALAP); dose 0.025 kg/ha): 3 (3 - Moderate effect) | GALAP rating (Galium aparine (GALAP); dose 0.1 kg/ha): 6 (6 - Herbicidal effect) | GALAP rating (Galium aparine (GALAP); dose 0.4 kg/ha): 8 (8 - Approaching complete kill) | LAMPU rating (Lamium purpureum (LAMPU) [5]; dose 0.013 kg/ha): 5 (5 - Definite injury) | LAMPU rating (Lamium purpureum (LAMPU) [5]; dose 0.025 kg/ha): 8 (8 - Approaching complete kill) | LAMPU rating (Lamium purpureum (LAMPU) [5]; dose 0.1 kg/ha): 8 (8 - Approaching complete kill) | LAMPU rating (Lamium purpureum (LAMPU) [5]; dose 0.4 kg/ha): 9 (9 - Complete kill) | activity against Stellaria (Stellaria media (STEME) [6]): superior activity | STEME rating (Stellaria media (STEME) [6]; dose 0.013 kg/ha): 8 (8 - Approaching complete kill) | STEME rating (Stellaria media (STEME) [6]; dose 0.025 kg/ha): 9 (9 - Complete kill) | STEME rating (Stellaria media (STEME) [6]; dose 0.1 kg/ha): 9 (9 - Complete kill) | STEME rating (Stellaria media (STEME) [6]; dose 0.4 kg/ha): 9 (9 - Complete kill) | ALOMY rating ([7]; dose 0.013 kg/ha): 6 (6 - Herbicidal effect) | ALOMY rating ([7]; dose 0.025 kg/ha): 9 (9 - Complete kill) | ALOMY rating ([7]; dose 0.1 kg/ha): 9 (9 - Complete kill) | ALOMY rating ([7]; dose 0.4 kg/ha): 9 (9 - Complete kill) | ECHCG rating ([8]; dose 0.013 kg/ha): 4 (4 - Injury) | ECHCG rating ([8]; dose 0.025 kg/ha): 6 (6 - Herbicidal effect) | ECHCG rating ([8]; dose 0.1 kg/ha): 8 (8 - Approaching complete kill) | ECHCG rating ([8]; dose 0.4 kg/ha): 9 (9 - Complete kill) | activity against Setaria (Setaria viridis (SETVI) [9]): superior activity | SETVI rating (Setaria viridis (SETVI) [9]; dose 0.013 kg/ha): 7 (7 - Good herbicidal effect) | SETVI rating (Setaria viridis (SETVI) [9]; dose 0.025 kg/ha): 8 (8 - Approaching complete kill) | SETVI rating (Setaria viridis (SETVI) [9]; dose 0.1 kg/ha): 9 (9 - Complete kill) | SETVI rating (Setaria viridis (SETVI) [9]; dose 0.4 kg/ha): 9 (9 - Complete kill) | HORVW rating (Hordeum vulgare (HORVW); dose 0.03 kg/ha): 3 (3 - Moderate effect) | HORVW rating (Hordeum vulgare (HORVW); dose 0.1 kg/ha): 4 (4 - Injury) | HORVW rating (Hordeum vulgare (HORVW); dose 0.4 kg/ha): 4 (4 - Injury) | TRZAW rating ([10]; dose 0.03 kg/ha): 3 (3 - Moderate effect) | TRZAW rating ([10]; dose 0.1 kg/ha): 3 (3 - Moderate effect) | TRZAW rating ([10]; dose 0.4 kg/ha): 3 (3 - Moderate effect) | ZEAMX rating (Zea mays (ZEAMX) [11]; dose 0.03 kg/ha): 2 (2 - Slight effect) | ZEAMX rating (Zea mays (ZEAMX) [11]; dose 0.1 kg/ha): 5 (5 - Definite injury) | ZEAMX rating (Zea mays (ZEAMX) [11]; dose 0.4 kg/ha): 5 (5 - Definite injury) | AMBEL rating ([12]; dose 0.03 kg/ha): 3 (3 - Moderate effect) | AMBEL rating ([12]; dose 0.1 kg/ha): 7 (7 - Good herbicidal effect) | AMBEL rating ([12]; dose 0.4 kg/ha): 8 (8 - Approaching complete kill) | IPOHE rating ([13]; dose 0.03 kg/ha): 6 (6 - Herbicidal effect) | IPOHE rating ([13]; dose 0.1 kg/ha): 9 (9 - Complete kill) | IPOHE rating ([13]; dose 0.4 kg/ha): 9 (9 - Complete kill) | LAMPU rating (Lamium purpureum (LAMPU) [14]; dose 0.03 kg/ha): 0 (0 - No effect) | LAMPU rating (Lamium purpureum (LAMPU) [14]; dose 0.1 kg/ha): 3 (3 - Moderate effect) | LAMPU rating (Lamium purpureum (LAMPU) [14]; dose 0.4 kg/ha): 8 (8 - Approaching complete kill) | MATIN rating ([15]; dose 0.03 kg/ha): 7 (7 - Good herbicidal effect) | MATIN rating ([15]; dose 0.1 kg/ha): 8 (8 - Approaching complete kill) | MATIN rating ([15]; dose 0.4 kg/ha): 8 (8 - Approaching complete kill) | SOLNI rating (Solanum nigrum (SOLNI); dose 0.03 kg/ha): 3 (3 - Moderate effect) | SOLNI rating (Solanum nigrum (SOLNI); dose 0.1 kg/ha): 6 (6 - Herbicidal effect) | SOLNI rating (Solanum nigrum (SOLNI); dose 0.4 kg/ha): 8 (8 - Approaching complete kill) | STEME rating (Stellaria media (STEME) [16]; dose 0.03 kg/ha): 4 (4 - Injury) | STEME rating (Stellaria media (STEME) [16]; dose 0.1 kg/ha): 6 (6 - Herbicidal effect) | STEME rating (Stellaria media (STEME) [16]; dose 0.4 kg/ha): 8 (8 - Approaching complete kill) | ALOMY rating ([17]; dose 0.03 kg/ha): 6 (6 - Herbicidal effect) | ALOMY rating ([17]; dose 0.1 kg/ha): 8 (8 - Approaching complete kill) | ALOMY rating ([17]; dose 0.4 kg/ha): 8 (8 - Approaching complete kill) | DIGSA rating ([18]; dose 0.03 kg/ha): 9 (9 - Complete kill) | DIGSA rating ([18]; dose 0.1 kg/ha): 9 (9 - Complete kill) | DIGSA rating ([18]; dose 0.4 kg/ha): 9 (9 - Complete kill) | ECHCG rating ([19]; dose 0.03 kg/ha): 8 (8 - Approaching complete kill) | ECHCG rating ([19]; dose 0.1 kg/ha): 8 (8 - Approaching complete kill) | ECHCG rating ([19]; dose 0.4 kg/ha): 8 (8 - Approaching complete kill) | SETVI rating (Setaria viridis (SETVI) [20]; dose 0.03 kg/ha): 5 (5 - Definite injury) | SETVI rating (Setaria viridis (SETVI) [20]; dose 0.1 kg/ha): 6 (6 - Herbicidal effect) | SETVI rating (Setaria viridis (SETVI) [20]; dose 0.4 kg/ha): 8 (8 - Approaching complete kill)
